From PubChem BioAssay AID2060355 (Molecular Pharmacology Branch, DTP, NCI, 2025)
pIC50: −log10 of the molar value.

System: 485368-065-R4-J2-PDC spheroids with HUVEC/MSC, viability
Assay: Anticancer human tumor 485368-065-R4-J2-PDC patient-derived pancreatic carcinoma cell line growth inhibition [TAK]
Details: for pIC50: curve of first compound; for viability, T/C: stronger effect = lower value; active = viability on the fitted dose curve at most 10% of control; inactive = the rest
Excerpt: Combinatorial screen of targeted agents with TAK-243 and ipatasertib in multi-cell type tumor spheroids
A high-throughput screen of multi-cell type tumor spheroids was designed to identify active combinations of targeted small molecules and TAK-243 or ipatasertib. Complex spheroids include a stromal component modeled by human endothelial cells (HUVEC) and fibroblasts modeled by human mesenchymal stem cells (MSCs). The concentration ranges selected for each drug and investigational agent were based upon clinically achievable concentrations if the clinical Cmax of the agent was known.
Compounds. The drugs and investigational agents: TAK-243 (785004), ipatasertib (767898), everolimus (733504), selumetinib (741078), bortezomib (756655), trametinib (758246), ixazomib (758254), vemurafenib (761431), dabrafenib (764134), sapanisertib (764658), alpelisib (765974), and copanlisib (816437), were obtained from the National Cancer Institute (NCI) Developmental Therapeutics Program Chemical Repository. The FDA-approved anticancer drug set is available from the NCI Developmental Therapeutics Program. […] The stock solutions were prepared in dimethyl sulfoxide (DMSO, Sigma-Aldrich, St. Louis, MO, cat. D2650) at 800-fold the tested concentration and stored at -70 degrees C prior to their use. All drugs and investigational agents were tested over a range starting from a high concentration at or near the clinical Cmax and decreasing in half-log increments. If the clinical Cmax for an agent had not been determined, the highest concentration tested was 10 microM.
NCI60 Cell Culture. NCI60 cell lines were obtained from the NCI Developmental Therapeutics Program Tumor Repository. For each lot of cells, the Repository performed Applied Biosystems AmpFLSTR Identifiler testing with PCR amplification to confirm consistency with the published Identifier STR profile for each cell line. Cells were kept in continuous culture for no more than 20 passages. The optimal seeding densities for each of the cell lines at each time point assessed were determined prior to performing the concentration response studies. Briefly, the NCI60 human tumor lines were grown as monolayers in RPMI 1640 medium supplemented with 10% FBS and 2 mmol/L L-glutamine.
An additional 2 lines were from the NCI60 cell line panel including melanomas, MALME-3M and SK-MEL-2. Pooled donor human umbilical vein endothelial cells (HUVEC, Lonza, cat. CC-2519) and human mesenchymal stem cells (hMSC, Lonza, cat. PT-2501) were purchased from Lonza (Walkersville, MD).
PDMR cell lines were grown in complete medium (DC medium): Dulbecco's modified Eagle's medium (DMEM)/F12 supplemented with 5% fetal bovine serum (FBS), 2 mM L-glutamine, 100 U/mL penicillin and 100 µg/ml streptomycin, 0.4 µg/ml hydrocortisone, 10 ng/ml epidermal growth factor (EGF) recombinant human protein, 24 µg/mL adenine, and 0.1 mg/mL primocin. During culture from frozen stock vials, PDMR cells were cultured in the same medium containing 10 µM Y-27632 (see Table 3). The PDCs were cultured in complete DMEM/F12 media without 10 microM Y-27632 dihydrochloride for at least two passages prior to the screen. The pooled donor HUVEC and hMSC were cultured in endothelial cell growth medium 2 (PromoCell, Heidelberg, Germany, cat. C-22011) and mesenchymal stem cell growth medium 2 (PromoCell, cat. C-28009), respectively. For all experiments, HUVEC and hMSC were used at passages </=5.
For the pre-screen, cell seeding densities were determined from a titration spanning the range from 5,000 to 313 cells per well. The mct-spheroids including 60% malignant cells, 25% HUVEC and 15% MSC dispensed as a mixture into U-bottom Ultra-Low Attachment 384-well plates (Corning, NY)
High-throughput Drug Combination Screening.
Prior to their inoculation into 384-well plates, malignant cells, HUVEC, and hMSC were removed from T flasks using TrypLE express (Thermo Fisher Scientific, cat. 12605036) and harvested by centrifugation for 5 min at 233 x g. […]
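Also: spheroids exposed to compounds for seven days before readout.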

CC(C)CC(NC(=O)C(Cc1ccccc1)NC(=O)c1cnccn1)B(O)O (stereo not given) + CC(C)NCC(C(=O)N1CCN(c2ncnc3c2C(C)CC3O)CC1)c1ccc(Cl)cc1
active: viability, T/C (second compound 0.949 µM, first compound 0.01 µM) 9.62% | viability, T/C (second compound 9.49 µM, first compound 0.01 µM) 8.65% | viability, T/C (second compound 30 µM, first compound 0.01 µM) 6.97%
8.33: pIC50 (second compound 30 µM)
8.29: pIC50 (second compound 9.49 µM)
inactive: viability, T/C (second compound 0.3 µM, first compound 31.6 pM) 98.2% | viability, T/C (second compound 0.3 µM, first compound 0.0001 µM) 96.9% | viability, T/C (second compound 0.3 µM, first compound 0.000316 µM) 90.6% | viability, T/C (second compound 0.3 µM, first compound 0.001 µM) 92.2% | viability, T/C (second compound 0.3 µM, first compound 0.00316 µM) 108% | viability, T/C (second compound 0.3 µM, first compound 0.01 µM) 10% | viability, T/C (second compound 0.949 µM, first compound 31.6 pM) 94.5% | viability, T/C (second compound 0.949 µM, first compound 0.0001 µM) 94.3% | viability, T/C (second compound 0.949 µM, first compound 0.000316 µM) 103% | viability, T/C (second compound 0.949 µM, first compound 0.001 µM) 98.4% | viability, T/C (second compound 0.949 µM, first compound 0.00316 µM) 102% | viability, T/C (second compound 3 µM, first compound 31.6 pM) 94.3% | viability, T/C (second compound 3 µM, first compound 0.0001 µM) 101% | viability, T/C (second compound 3 µM, first compound 0.000316 µM) 98.5% | viability, T/C (second compound 3 µM, first compound 0.001 µM) 92.2% | viability, T/C (second compound 3 µM, first compound 0.00316 µM) 94.9% | viability, T/C (second compound 3 µM, first compound 0.01 µM) 12.9% | viability, T/C (second compound 9.49 µM, first compound 31.6 pM) 97% | viability, T/C (second compound 9.49 µM, first compound 0.0001 µM) 94.2% | viability, T/C (second compound 9.49 µM, first compound 0.000316 µM) 91.1% | viability, T/C (second compound 9.49 µM, first compound 0.001 µM) 95.2% | viability, T/C (second compound 9.49 µM, first compound 0.00316 µM) 79.7% | viability, T/C (second compound 30 µM, first compound 31.6 pM) 78.5% | viability, T/C (second compound 30 µM, first compound 0.0001 µM) 81.9% | viability, T/C (second compound 30 µM, first compound 0.000316 µM) 77.6% | viability, T/C (second compound 30 µM, first compound 0.001 µM) 78% | viability, T/C (second compound 30 µM, first compound 0.00316 µM) 71.2%
8.23: pIC50 (second compound 0.3 µM) | pIC50 (second compound 0.949 µM) | pIC50 (second compound 3 µM)

Cn1cnc2c(F)c(Nc3ccc(Br)cc3Cl)c(C(=O)NOCCO)cc21 + CC(C)NCC(C(=O)N1CCN(c2ncnc3c2C(C)CC3O)CC1)c1ccc(Cl)cc1
inactive: viability, T/C (second compound 0.3 µM, first compound 0.00949 µM) 76.1% | viability, T/C (second compound 0.3 µM, first compound 0.03 µM) 69.6% | viability, T/C (second compound 0.3 µM, first compound 0.0949 µM) 59% | viability, T/C (second compound 0.3 µM, first compound 0.3 µM) 48.5% | viability, T/C (second compound 0.3 µM, first compound 0.949 µM) 37% | viability, T/C (second compound 0.3 µM, first compound 3 µM) 23% | viability, T/C (second compound 0.949 µM, first compound 0.00949 µM) 70% | viability, T/C (second compound 0.949 µM, first compound 0.03 µM) 56.2% | viability, T/C (second compound 0.949 µM, first compound 0.0949 µM) 42.9% | viability, T/C (second compound 0.949 µM, first compound 0.3 µM) 30.3% | viability, T/C (second compound 0.949 µM, first compound 0.949 µM) 21.7% | viability, T/C (second compound 0.949 µM, first compound 3 µM) 13.5% | viability, T/C (second compound 3 µM, first compound 0.00949 µM) 72.5% | viability, T/C (second compound 3 µM, first compound 0.03 µM) 51.6% | viability, T/C (second compound 3 µM, first compound 0.0949 µM) 31.2% | viability, T/C (second compound 3 µM, first compound 0.3 µM) 19.4% | viability, T/C (second compound 3 µM, first compound 0.949 µM) 13.6% | viability, T/C (second compound 3 µM, first compound 3 µM) 10.7% | viability, T/C (second compound 9.49 µM, first compound 0.00949 µM) 60.4% | viability, T/C (second compound 9.49 µM, first compound 0.03 µM) 40.6% | viability, T/C (second compound 9.49 µM, first compound 0.0949 µM) 24.1% | viability, T/C (second compound 9.49 µM, first compound 0.3 µM) 17.4% | viability, T/C (second compound 9.49 µM, first compound 0.949 µM) 10.9% | viability, T/C (second compound 30 µM, first compound 0.00949 µM) 50.1% | viability, T/C (second compound 30 µM, first compound 0.03 µM) 33.9% | viability, T/C (second compound 30 µM, first compound 0.0949 µM) 21.2% | viability, T/C (second compound 30 µM, first compound 0.3 µM) 15.5% | viability, T/C (second compound 30 µM, first compound 0.949 µM) 11.1%
7.77: pIC50 (second compound 9.49 µM)
8.02: pIC50 (second compound 30 µM)
6.58: pIC50 (second compound 0.3 µM)
7.29: pIC50 (second compound 0.949 µM)
active: viability, T/C (second compound 9.49 µM, first compound 3 µM) 8.27% | viability, T/C (second compound 30 µM, first compound 3 µM) 9.61%
7.49: pIC50 (second compound 3 µM)
